Assay type in all cases: cell-based
One assay deals with T1, KRAS (Homo sapiens, UniProt P01116).
T1 construct: endogenous in cells; host or cells: KE39 (KRAS amplified) cells
The assay can be described thus: KRASamp MSD assay. The conditions noted are these: KE39 (KRAS amplified) cells, treated with test compounds for 24 hr, MSD readout of KRAS degradation. An outline of the steps: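 Degradation DC50 derived by curve fitting, with KRAS levels quantified by MSD electrochemiluminescence (capture/detection antibodies, recombinant WT KRAS standard). Lysates prepared from KE39 cells (KRAS amplified) exposed to test compounds for 24 hr.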

The next assay addresses T2, KRAS G12D (Homo sapiens, UniProt P01116, G12D).
T2 construct: AsPc-1-KRAS (G12D)-HiBit-KI cell (Pharmaron); host or cells: AsPc-1-KRAS (G12D)-HiBit-KI cells (HiBiT knock-in at the endogenous KRAS locus)
The assay can be described thus: KRAS G12D HiBit assay. The conditions noted are these: AsPc-1-KRAS (G12D)-HiBit-KI cell, compound treatment for 24 hours; for DC50: absolute DC50. An outline of the steps: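 HiBiT luminescence, detected by adding lytic buffer, substrate and LgBiT protein, served as the KRAS G12D read-out. Compounds, serially diluted 3-fold over 10 points from 0.3 mM DMSO stock, were on cells for 24 h; percent inhibition normalized to cells given 0.1% DMSO only.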
In general terms: HiBiT is a short tag that completes a luciferase, so light tracks the accessible tagged protein.

The target of another assay is T3, KRAS G12V (Homo sapiens, UniProt P01116, G12V).
T3 construct: SW620-KRAS (G12V)-HiBit-KI cell (Pharmaron); host or cells: SW620-KRAS (G12V)-HiBit-KI cells (HiBiT knock-in at the endogenous KRAS locus)
T3 sequence (P01116 1-188 isoform P01116-2 G12V): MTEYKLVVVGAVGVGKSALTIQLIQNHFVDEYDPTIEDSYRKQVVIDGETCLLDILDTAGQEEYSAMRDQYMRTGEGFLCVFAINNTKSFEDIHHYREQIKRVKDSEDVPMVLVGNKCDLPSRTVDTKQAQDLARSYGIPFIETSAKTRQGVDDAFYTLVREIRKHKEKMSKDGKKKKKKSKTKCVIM
Briefly: KRAS G12V HiBit assay. The conditions noted are these: SW620-KRAS (G12V)-HiBit-KI cells, compound treatment for 24 hours. An outline of the steps:
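Luminescence from lytic Nano-Glo HiBiT detection with LgBiT read KRAS G12V levels after 24 h compound exposure. Dilutions were 10-point, 3-fold, from a 0.3 mM DMSO stock. Degradation activity was normalised to cells given 0.1% DMSO alone.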

The structures appear in SMILES notation.

T2 sequence (P01116 1-188 isoform P01116-2 G12D): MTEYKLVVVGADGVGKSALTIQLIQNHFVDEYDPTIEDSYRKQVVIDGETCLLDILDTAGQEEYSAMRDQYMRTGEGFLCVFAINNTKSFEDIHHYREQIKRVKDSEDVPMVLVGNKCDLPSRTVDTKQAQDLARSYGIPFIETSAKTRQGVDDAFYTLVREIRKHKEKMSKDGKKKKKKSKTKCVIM
T1 sequence (P01116 1-188 isoform P01116-2): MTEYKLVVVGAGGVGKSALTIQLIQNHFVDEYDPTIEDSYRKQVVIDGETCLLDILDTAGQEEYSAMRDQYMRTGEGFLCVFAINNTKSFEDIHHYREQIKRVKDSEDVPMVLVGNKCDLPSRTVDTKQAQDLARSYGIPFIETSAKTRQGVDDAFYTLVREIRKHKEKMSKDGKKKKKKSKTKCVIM

Turning to `CCc1c(F)ccc2cc(O)cc(-c3ncc4c(N5CCC[C@@](C)(O)C5)nc(OC[C@@]56CCCN5[C@@H](COC(=O)N5CCC(CN7CCC(c8ccc9c(c8)n(C)c(=O)n9C8CCC(=O)NC8=O)CC7)CC5)CC6)nc4c3F)c12` (stereo partly drawn) [Compound 389, ((3R,7aS)-7a-(((7-(8-ethyl-7-fluoro-3-hydroxynaphthalen-1-yl)-8-fluoro-4-((R)-3-hydroxy-3-methylpiperidin-1-yl)pyrido[4,3-d]pyrimidin-2-yl)oxy)methyl)hexahydro-1H-pyrrolizin-3-yl)methyl 4-((4-(1-(2,6-dioxopiperidin-3-yl)-3-methyl-2-oxo-2,3-dihydro-1H-benzo[d]imidazol-5-yl)piperidin-1-yl)methyl)piperidine-1-carboxylate], the values for the DC50 at KRAS, on KRAS G12D (class symbols) and at KRAS G12V (numeric bounds) were 1 to 10 nM, under 100 nM and over 70.5 nM, respectively.
With `CCc1c(F)ccc2cc(O)cc(-c3ncc4c(N5CCC[C@@](C)(O)C5)nc(OC[C@@]56CCCN5[C@H](COC(=O)N5CCC(CN7CCC(c8ccc9c(c8)n(C)c(=O)n9C8CCC(=O)NC8=O)C7)CC5)CC6)nc4c3F)c12` (stereo partly drawn) [Compound 435, ((3S,7aS)-7a-(((7-(8-ethyl-7-fluoro-3-hydroxynaphthalen-1-yl)-8-fluoro-4-((R)-3-hydroxy-3-methylpiperidin-1-yl)pyrido[4,3-d]pyrimidin-2-yl)oxy)methyl)hexahydro-1H-pyrrolizin-3-yl)methyl 4-((3-(1-(2,6-dioxopiperidin-3-yl)-3-methyl-2-oxo-2,3-dihydro-1H-benzo[d]imidazol-5-yl)pyrrolidin-1-yl)methyl)piperidine-1-carboxylate], the DC50 on KRAS is 1 to 10 nM; on KRAS G12D (class symbols), under 100 nM; on KRAS G12V (class symbols), 10 to 100 nM.
Take `C#Cc1c(F)ccc2cc(O)cc(-c3ncc4c(N5CCC[C@@](C)(O)C5)nc(OC[C@@]56CCCN5[C@@H](COC(=O)N5CCC(CN7CCC(c8ccc9c(c8)n(C)c(=O)n9C8CCC(=O)NC8=O)CC7)CC5)CC6)nc4c3F)c12` (stereo partly shown) [Compound 140]: the figures for the DC50 on KRAS, at KRAS G12D (class symbols) and on KRAS G12V (numeric bounds) were under 1 nM, under 100 nM and over 38.9 nM, respectively.
Consider `C#Cc1c(F)ccc2cc(O)cc(-c3ccc4c(N5CCC[C@@](C)(O)C5)nc(OCC5(CN6CCC(CN7CCC(c8ccc9c(c8)n(C)c(=O)n9C8CCC(=O)NC8=O)CC7)CC6)CC5)nc4c3F)c12` (stereo partly shown) [Compound 13], for which the DC50 at KRAS was under 1 nM; on KRAS G12D (class symbols), under 100 nM; on KRAS G12V (class symbols), under 10 nM.
The like results for `C#Cc1c(F)ccc2cc(O)cc(-c3ncc4c(N5CCC[C@@](C)(O)C5)nc(OCC5(CN6CCN(CC7CCN(c8ccc9c(c8)C(=O)N(C8CCC(=O)NC8=O)C9=O)CC7)CC6)CC5)nc4c3F)c12` (stereo partly shown) [Compound 50] were, in that order, 1 to 10 nM, under 100 nM and under 10 nM.
On to `CCc1c(F)ccc2cc(O)cc(-c3ncc4c(N5CCC[C@@](C)(O)C5)nc(OC[C@@]56CCCN5[C@H](COC(=O)N5CCC(CN7CCC(c8ccc9c(C%10CCC(=O)NC%10=O)nn(C)c9c8F)CC7)CC5)CC6)nc4c3F)c12` (stereo partly drawn) [Compound 100, [(3S,8S)-8-[[7-(8-ethyl-7-fluoro-3-hydroxy-1-naphthyl)-8-fluoro-4-[(3R)-3-hydroxy-3-methyl-1-piperidyl]pyrido[4,3-d]pyrimidin-2-yl]oxymethyl]-1,2,3,5,6,7-hexahydropyrrolizin-3-yl]methyl 4-[[4-[3-(2,6-dioxo-3-piperidyl)-7-fluoro-1-methyl-indazol-6-yl]-1-piperidyl]methyl]piperidine-1-carboxylate], for which the DC50 was under 1 nM on KRAS, under 100 nM on KRAS G12D (class symbols) and under 10 nM at KRAS G12V (class symbols). Besides, the Dmax at KRAS G12D (class symbols) was over 50%.
Consider `C#Cc1c(F)ccc2cc(O)cc(-c3ncc4c(N5CCC[C@@](C)(O)C5)nc(OC[C@@]56CCCN5[C@H](COC(=O)N5CCC(OCC#Cc7cccc8c7n(C)c(=O)n8C7CCC(=O)NC7=O)CC5)CC6)nc4c3F)c12` (stereo partly drawn) [Compound 372, ((3S,7aS)-7a-(((7-(8-ethynyl-7-fluoro-3-hydroxynaphthalen-1-yl)-8-fluoro-4-((R)-3-hydroxy-3-methylpiperidin-1-yl)pyrido[4,3-d]pyrimidin-2-yl)oxy)methyl)hexahydro-1H-pyrrolizin-3-yl)methyl 4-((3-(1-(2,6-dioxopiperidin-3-yl)-3-methyl-2-oxo-2,3-dihydro-1H-benzo[d]imidazol-4-yl)prop-2-yn-1-yl)oxy)piperidine-1-carboxylate], for which the DC50 was 1 to 10 nM on KRAS, under 100 nM on KRAS G12D (class symbols) and 10 to 100 nM on KRAS G12V (class symbols).
As for `CCc1c(F)ccc2cc(O)cc(-c3ncc4c(N5CCCOCC5)nc(OC[C@]56CCCN5[C@H](COC(=O)N5CCC(CN7CCC(c8ccc9c(c8)n(C)c(=O)n9C8CCC(=O)NC8=O)CC7)CC5)CC6)nc4c3F)c12` (stereo partly drawn) [Compound 423, ((3S,7aR)-7a-(((7-(8-ethyl-7-fluoro-3-hydroxynaphthalen-1-yl)-8-fluoro-4-(1,4-oxazepan-4-yl)pyrido[4,3-d]pyrimidin-2-yl)oxy)methyl)hexahydro-1H-pyrrolizin-3-yl)methyl 4-((4-(1-(2,6-dioxopiperidin-3-yl)-3-methyl-2-oxo-2,3-dihydro-1H-benzo[d]imidazol-5-yl)piperidin-1-yl)methyl)piperidine-1-carboxylate], the DC50 is under 1 nM at KRAS, under 100 nM on KRAS G12D (class symbols) and under 10 nM on KRAS G12V (class symbols).
Consider `CCc1cccc2cc(O)cc(-c3ncc4c(N5CCC[C@@](C)(O)C5)nc(OC[C@@]56CCCN5[C@H](COC(=O)N5CCC7(CC5)CC(N5CCC(c8ccc9c(c8)n(C)c(=O)n9C8CCC(=O)NC8=O)CC5)C7)CC6)nc4c3F)c12` (stereo partly drawn) [Compound 468, ((3S,7aS)-7a-(((7-(8-ethyl-3-hydroxynaphthalen-1-yl)-8-fluoro-4-((R)-3-hydroxy-3-methylpiperidin-1-yl)pyrido[4,3-d]pyrimidin-2-yl)oxy)methyl)hexahydro-1H-pyrrolizin-3-yl)methyl 2-(4-(1-(2,6-dioxopiperidin-3-yl)-3-methyl-2-oxo-2,3-dihydro-1H-benzo[d]imidazol-5-yl)piperidin-1-yl)-7-azaspiro[3.5]nonane-7-carboxylate], for which the DC50 at KRAS was under 1 nM; on KRAS G12D (class symbols), under 100 nM; on KRAS G12V (class symbols), under 10 nM.
The like results for `CCc1c(F)ccc2cc(O)cc(-c3ncc4c(N5CCC[C@@](C)(O)C5)nc(OC[C@@]56CCCN5[C@H](COC(=O)N5CCC(C#CC7CCN(c8ccc9c(c8)n(C)c(=O)n9C8CCC(=O)NC8=O)CC7)CC5)CC6)nc4c3F)c12` (stereo partly drawn) [Compound 500, [(3S,7aS)-7a-({[7-(8-ethyl-7-fluoro-3-hydroxynaphthalen-1-yl)-8-fluoro-4-[(3R)-3-hydroxy-3-methylpiperidin-1-yl]pyrido[4,3-d]pyrimidin-2-yl]oxy}methyl)-hexahydropyrrolizin-3-yl]methyl 4-(2-{1-[1-(2,6-dioxopiperidin-3-yl)-3-methyl-2-oxo-1,3-benzodiazol-5-yl]piperidin-4-yl}ethynyl) piperidine-1-carboxylate] were, in that order, under 1 nM, under 100 nM and under 10 nM.
For `C#Cc1c(F)ccc2cccc(-c3ncc4c(N5CCC[C@@](C)(O)C5)nc(OC[C@]56CCCN5[C@H](COC(=O)N5CCC(CN7CCC(c8ccc9c(c8)n(C)c(=O)n9C8CCC(=O)NC8=O)CC7)CC5)CC6)nc4c3F)c12` (stereo partly shown) [Compound 141], the DC50 at KRAS is under 1 nM; at KRAS G12D (numeric bounds given in place of class symbols), over 100 nM; at KRAS G12V (numeric bounds), over 79.2 nM.

(Values after patent US12599672B2, “KRAS proteolysis targeting chimeras” (PAQ Therapeutics Inc., priority 2023, dated 2026).)
